Measurements from ChEMBL document CHEMBL3886160, “1,2,4-triazine-6-carboxamide derivative” (2015).
pIC50: −log10 of the molar value.

What follows are compounds tested against Tyrosine-protein kinase SYK (Homo sapiens, UniProt P43405) (assay: Syk Kinase Inhibition Assay: The in vitro inhibitory activity of the compound of the present invention against Syk kinase activity was assayed under the following conditions: the purified human Syk protein used in the test were purchased from Carna Biosciences, Inc. For the inhibitory activity assay on the compound, the compound of the present invention was first serially diluted with dimethyl …).
Description: Syk Kinase Inhibition Assay: The in vitro inhibitory activity of the compound of the present invention against Syk kinase activity was assayed under the following conditions: the purified human Syk protein used in the test were purchased from Carna Biosciences, Inc. For the inhibitory activity assay on the compound, the compound of the present invention was first serially diluted with dimethyl sulfoxide (DMSO). […] The kinase reaction was stopped by the addition thereto of EDTA.

Row | SMILES | pIC50
1 | Cc1cc(Nc2nc(N[C@@H]3CCOC[C@@H]3N)nnc2C(N)=O)cc2ccsc12 | 9.43
2 | NC(=O)c1nnc(N[C@@H]2CCOC[C@@H]2N)nc1Nc1csc2ccccc12 | 9.05
3 | NC(=O)c1nnc(N[C@@H]2CCCC[C@@H]2N)nc1Nc1nc(-c2ccccc2)cs1 | 9.42
